Test results reported in US11771738B2 (Zoetis Services LLC, priority 2018, dated 2023).
Read-outs that look alike come from different tables or passages of the source.

Columns and labels:
Format in all cases: cell-based
[1] = test system: D. immitis L4 larvae; test: Dirofilaria immitis, L4 Stage (DiL4) In Vitro Assay; details: for minimal effective concentration: Dirofilaria immitis, 72 h, read-out: DiL4 MED, Minimum Effective Dose, D. immitis L4 larvae motility, in vitro; for DiMf/DiL4: larval stage selectivity, ratio of DiMf MED to DiL4 MED
[2] = test system: microfilariae of Dirofilaria immitis; test: Dirofilaria immitis, Microfilaria (DiMf) In Vitro Assay; details: Dirofilaria immitis, 72 h, read-out: DiMf MED, Minimum Effective Dose, D. immitis microfilariae motility, in vitro
[3] = test system: third stage larvae of Haemonchus contortus; test: Haemonchus contortus, Larvae Stage 3 (HcL3) In Vitro Assay; details: Haemonchus contortus, 96 h
[4] = read-out: HcL3 MED, Haemonchus contortus third stage larvae in vitro, class mark appended to the Ex # in Table 3
[5] = read-out: HcL3 MED, Minimum Effective Dose, H. contortus third stage larvae, approximately 96 hours
[6] = read-out: HcL3 MED, approximately 96 hours incubation, multiple-resistant field isolate

`CC(C)C[C@H]1C(=O)O[C@H](Cc2ccc(Cc3cncnc3C3CC3)cc2)C(=O)N(C)[C@@H](CC(C)C)C(=O)O[C@H](C)C(=O)N(C)[C@@H](CC(C)C)C(=O)O[C@H](Cc2ccc(Cc3cncnc3C3CC3)cc2)C(=O)N(C)[C@@H](CC(C)C)C(=O)O[C@H](C)C(=O)N1C` [Example 3-289, (3S,6R,9S,12R,15S,18R,21S,24R)-6,18-bis(4-((4-cyclopropylpyrimidin-5-yl)methyl)benzyl)-3,9,15,21-tetraisobutyl-4,10,12,16,22,24-hexamethyl-1,7,13,19-tetraoxa-4,10,16,22-tetraazacyclotetracosan-2,5,8,11,14,17,20,23-octaone] gave a minimal effective concentration [1] of 0.0005 µM, a DiMf/DiL4 [1] of 6 and a minimal effective concentration [2] of 0.003 µM. It also gave a minimal effective concentration [3, 4] of 1 to 3.3 µM and a minimal effective concentration [3, 5] of 3.3 µM.

`CC(C)C[C@H]1C(=O)O[C@H](Cc2ccc(Cc3cccnc3C(F)F)cc2)C(=O)N(C)[C@@H](CC(C)C)C(=O)O[C@H](C)C(=O)N(C)[C@@H](CC(C)C)C(=O)O[C@H](Cc2ccc(Cc3cccnc3C(F)F)cc2)C(=O)N(C)[C@@H](CC(C)C)C(=O)O[C@H](C)C(=O)N1C` [Example 3-290, (3S,6R,9S,12R,15S,18R,21S,24R)-6,18-bis[[4-[[2-(difluoromethyl)-3-pyridyl]methyl]phenyl]methyl]-3,9,15,21-tetraisobutyl-4,10,12,16,22,24-hexamethyl-1,7,13,19-tetraoxa-4,10,16,22-tetrazacyclotetracosane-2,5,8,11,14,17,20,23-octaone] showed a minimal effective concentration [1] of 0.0001 µM, a DiMf/DiL4 [1] of 3 and a minimal effective concentration [2] of 0.0003 µM. It also gave a minimal effective concentration [3, 4] of less than 1 µM, a minimal effective concentration [3, 5] of 0.2 µM and a minimal effective concentration [3, 6] of no more than 1 µM.

For `CC(C)C[C@H]1C(=O)O[C@H](Cc2ccc([C@@H](C)c3nccs3)cc2)C(=O)N(C)[C@@H](CC(C)C)C(=O)O[C@H](C)C(=O)N(C)[C@@H](CC(C)C)C(=O)O[C@H](Cc2ccc([C@@H](C)c3nccs3)cc2)C(=O)N(C)[C@@H](CC(C)C)C(=O)O[C@H](C)C(=O)N1C` [Example 3-291, (3S,6R,9S,12R,15S,18R,21S,24R)-3,9,15,21-tetraisobutyl-4,6,10,16,18,22-hexamethyl-12,24-bis(4-((R)-1-(thiazol-2-yl)ethyl)benzyl)-1,7,13,19-tetraoxa-4,10,16,22-tetraazacyclotetracosan-2,5,8,11,14,17,20,23-octaone], the minimal effective concentration [1] was 0.0001 µM, the DiMf/DiL4 [1] was 3 and the minimal effective concentration [2] was 0.0003 µM. For the same compound, the minimal effective concentration [3, 4] was less than 1 µM, the minimal effective concentration [3, 5] was 0.3 µM and the minimal effective concentration [3, 6] was no more than 1 µM.

Work on `CC(C)C[C@H]1C(=O)O[C@H](Cc2ccc(Cc3ccnc(N4CCOCC4)c3)cc2)C(=O)N(C)[C@@H](CC(C)C)C(=O)O[C@H](C)C(=O)N(C)[C@@H](CC(C)C)C(=O)O[C@H](Cc2ccc(Cc3ccnc(N4CCOCC4)c3)cc2)C(=O)N(C)[C@@H](CC(C)C)C(=O)O[C@H](C)C(=O)N1C` [Example 3-292, (3S,6R,9S,12R,15S,18R,21S,24R)-3,9,15,21-tetraisobutyl-4,6,10,16,18,22-hexamethyl-12,24-bis(4-((2-morpholinopyridin-4-yl)methyl)benzyl)-1,7,13,19-tetraoxa-4,10,16,22-tetraazacyclotetracosan-2,5,8,11,14,17,20,23-octaone] yielded a minimal effective concentration [1] of 0.0003 µM, a DiMf/DiL4 [1] of 3.3 and a minimal effective concentration [2] of 0.001 µM. The minimal effective concentration [3, 4] was 1 to 3.3 µM and the minimal effective concentration [3, 5] was 1.8 µM.

In the case of `COc1ncc(F)cc1Cc1ccc(C[C@H]2OC(=O)[C@H](CC(C)C)N(C)C(=O)[C@@H](C)OC(=O)[C@H](CC(C)C)N(C)C(=O)[C@@H](Cc3ccc(Cc4cc(F)cnc4OC)cc3)OC(=O)[C@H](CC(C)C)N(C)C(=O)[C@@H](C)OC(=O)[C@H](CC(C)C)N(C)C2=O)cc1` [Example 3-293, (3S,6R,9S,12R,15S,18R,21S,24R)-6,18-bis(4-((5-fluoro-2-methoxypyridin-3-yl)methyl)benzyl)-3,9,15,21-tetraisobutyl-4,10,12,16,22,24-hexamethyl-1,7,13,19-tetraoxa-4,10,16,22-tetraazacyclotetracosan-2,5,8,11,14,17,20,23-octaone], the minimal effective concentration [1] is reported as 0.0003 µM, the DiMf/DiL4 [1] is reported as 167 and the minimal effective concentration [2] is reported as 0.05 µM. It also gave a minimal effective concentration [3, 5] of 5.7 µM.

Work on `Cc1ncncc1Cc1ccc(C[C@H]2OC(=O)[C@H](CC(C)C)N(C)C(=O)[C@@H](C)OC(=O)[C@H](CC(C)C)N(C)C(=O)[C@@H](Cc3ccc(Cc4cncnc4C)cc3)OC(=O)[C@H](CC(C)C)N(C)C(=O)[C@@H](C)OC(=O)[C@H](CC(C)C)N(C)C2=O)cc1` [Example 3-294, (3S,6R,9S,12R,15S,18R,21S,24R)-3,9,15,21-tetraisobutyl-4,6,10,16,18,22-hexamethyl-12,24-bis(4-((4-methylpyrimidin-5-yl)methyl)benzyl)-1,7,13,19-tetraoxa-4,10,16,22-tetraazacyclotetracosan-2,5,8,11,14,17,20,23-octaone] yielded a minimal effective concentration [1] of 0.0001 µM, a DiMf/DiL4 [1] of 1 and a minimal effective concentration [2] of 0.0001 µM. It also gave a minimal effective concentration [3, 4] of less than 1 µM, a minimal effective concentration [3, 5] of 1 µM and a minimal effective concentration [3, 6] of no more than 1 µM.

`CC(C)C[C@H]1C(=O)O[C@H](Cc2ccc(Cc3cnccc3C(F)F)cc2)C(=O)N(C)[C@@H](CC(C)C)C(=O)O[C@H](C)C(=O)N(C)[C@@H](CC(C)C)C(=O)O[C@H](Cc2ccc(Cc3cnccc3C(F)F)cc2)C(=O)N(C)[C@@H](CC(C)C)C(=O)O[C@H](C)C(=O)N1C` [Example 3-295, (3S,6R,9S,12R,15S,18R,21S,24R)-6,18-bis(4-((4-(difluoromethyl)pyridin-3-yl)methyl)benzyl)-3,9,15,21-tetraisobutyl-4,10,12,16,22,24-hexamethyl-1,7,13,19-tetraoxa-4,10,16,22-tetraazacyclotetracosan-2,5,8,11,14,17,20,23-octaone] was tested, and the minimal effective concentration [1] was 0.0003 µM, the DiMf/DiL4 [1] was 16.7 and the minimal effective concentration [2] was 0.005 µM. The minimal effective concentration [3, 4] was 1 to 3.3 µM and the minimal effective concentration [3, 5] was 1.8 µM.

For `CC(C)C[C@H]1C(=O)O[C@H](Cc2ccc(Cc3cccnc3C3CC3)cc2)C(=O)N(C)[C@@H](CC(C)C)C(=O)O[C@H](C)C(=O)N(C)[C@@H](CC(C)C)C(=O)O[C@H](Cc2ccc(Cc3cccnc3C3CC3)cc2)C(=O)N(C)[C@@H](CC(C)C)C(=O)O[C@H](C)C(=O)N1C` [Example 3-296, (3S,6R,9S,12R,15S,18R,21S,24R)-6,18-bis(4-((2-cyclopropylpyridin-3-yl)methyl)benzyl)-3,9,15,21-tetraisobutyl-4,10,12,16,22,24-hexamethyl-1,7,13,19-tetraoxa-4,10,16,22-tetraazacyclotetracosan-2,5,8,11,14,17,20,23-octaone], the minimal effective concentration [1] was 0.0005 µM, the DiMf/DiL4 [1] was 60 and the minimal effective concentration [2] was 0.03 µM. The minimal effective concentration [3, 4] was 1 to 3.3 µM and the minimal effective concentration [3, 5] was 1.8 µM.
